Source: patent US10144715B2, “Piperazine derivatives as liver X receptor modulators” (priority 2014, dated 2018)
Like-named read-outs stand apart in the source and are kept apart here.

Assays:
[1] = target: T1, Gal4 DNA binding domain fused to the LBD of LXRβ in HEK293 cells (Homo sapiens (Human), UniProt P55055); assay: cell-based
[2] = target: T1, Gal4 DNA binding domain fused to the LBD of LXRβ in HEK293 cells; assay: cell-based; type: cell-based
LXR β LBD protein [3] = target: T2, LXR β LBD protein (Homo sapiens (Human), UniProt P55055); assay: biochemical; type: biochemical; settings: for EC50: read-out: FRET LXRβ EC50
Target sequence in this assay (P55055 222-460): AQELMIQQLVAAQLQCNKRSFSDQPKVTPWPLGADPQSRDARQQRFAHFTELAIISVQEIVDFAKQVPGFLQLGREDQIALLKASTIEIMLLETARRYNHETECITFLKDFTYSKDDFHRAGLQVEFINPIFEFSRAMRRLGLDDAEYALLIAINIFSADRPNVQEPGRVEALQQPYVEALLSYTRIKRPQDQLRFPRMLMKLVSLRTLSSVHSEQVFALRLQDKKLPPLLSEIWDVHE

LXR α LBD protein [4] = target: T3, LXR α LBD protein (Homo sapiens (Human), UniProt Q13133); assay: Human LXRα coactivator recruitment FRET assay, agonist mode; type: biochemical; settings: agonist mode
In short: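 Time-resolved FRET (delay 100 µs, window 200 µs) after 2 h rt incubation of compound with 10 nM (2×) GST-tagged LXRα or LXRβ LBD plus 200 nM fluorescein-SRC2-3 and 20 nM Tb-anti-GST (4×). Percent control vs concentration fit to four-parameter model; EC50 at inflection.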

[5] = target: T4, Gal4 DNA binding domain fused to the LBD of LXRα in HEK293 cells (Homo sapiens (Human), UniProt Q13133); assay: LXR luciferase transcriptional reporter gene assay, antagonist mode (200 nM T0901317), LXRα; type: cell-based
[6] = target: T4, Gal4 DNA binding domain fused to the LBD of LXRα in HEK293 cells; assay: LXR luciferase transcriptional reporter gene assay, agonist mode, LXRα; type: cell-based
LXR β LBD protein [7] = target: T2, LXR β LBD protein; assay: biochemical; type: binding
Target sequence in this assay (P55055 222-460 limits assumed): as the sequence (P55055 222-460) above

LXR α LBD protein [8] = target: T3, LXR α LBD protein; assay: LXR α radioligand binding assay (SPA, competition with [3H]TO901317); settings: read-out: LXRα Binding Ki
[9] = agonist mode, read-out: Cell LXRβ EC50
[10] = antagonist mode, 200 nM T0901317, HEK293 reporter gene assay
[11] = antagonist mode, 200 nM T0901317, HEK293 reporter gene assay, read-out: Cell LXRβ IC50
[12] = antagonist mode, 200 nM T0901317, HEK293 reporter gene assay, read-out: Cell LXRα IC50
[13] = agonist mode, read-out: Cell LXRα EC50

T1 sequence (P55055 222-460 limits assumed): as the sequence (P55055 222-460) above
T3 sequence (Q13133 209-447): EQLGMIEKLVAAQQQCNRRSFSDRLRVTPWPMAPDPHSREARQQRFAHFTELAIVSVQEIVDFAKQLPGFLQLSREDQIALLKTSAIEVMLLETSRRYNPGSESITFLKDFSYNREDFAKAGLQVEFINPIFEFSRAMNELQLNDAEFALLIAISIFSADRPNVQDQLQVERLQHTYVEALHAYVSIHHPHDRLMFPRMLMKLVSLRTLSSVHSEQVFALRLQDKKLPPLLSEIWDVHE
T4 sequence (Q13133 209-447): as above

Molecule	Cell LXRβ efficacy ([1]; agonist mode)	EC50 [1, 9] [nM]	Cell LXRβ efficacy [2, 10]	IC50 [2, 11] [nM]	FRET LXRβ efficacy (LXR β LBD protein [3]; agonist mode)	EC50 (LXR β LBD protein [3]; agonist mode) [nM]	EC50 (LXR α LBD protein [4]) [nM]	FRET LXRα efficacy (LXR α LBD protein [4]) [%]	Cell LXRα efficacy [5]	IC50 ([5]; read-out: Cell LXRα IC50) [µM]	Cell LXRα efficacy [6]	EC50 ([6]; read-out: Cell LXRα EC50) [nM]	EC50 [1] [nM]	Ki (LXR β LBD protein [7]; read-out: LXRβ Binding Ki) [nM]	IC50 [2] [nM]	IC50 [5, 12] [µM]	EC50 [6, 13] [nM]	Ki (LXR α LBD protein [8]) [nM]	also measured
NS(=O)(=O)c1cccc(N2CCN(C[C@H]3CC[C@@H](C(F)(F)F)CC3)[C@@H](c3ccccc3)C2)c1 (single isomer, unassigned) [48-35]	27%	120	38%	317	22%	46	416	52	7574 (100) %	7.57	351 (62) %	351							
CS(=O)(=O)c1cccc(N2CCN(Cc3ccc(C(F)(F)F)c(F)c3)[C@@H](c3ccccc3)C2)c1 (single isomer, unassigned) [46-26]	676 (62) %		6798 (54) %		411 (73) %		2860	59	7585 (36) %		1479 (62) %		676	58	6800	7.58	1480		EC50 (LXR β LBD protein [3]): 411 nM
CS(=O)(=O)c1cccc(N2CCN(Cc3ccc(C(F)(F)F)cc3)[C@@H](c3ccc(F)cc3)C2)c1 [46-24, (S)-2-(4-fluorophenyl)-4-(3-(methylsulfonyl)phenyl)-1-(4-(trifluoromethyl)benzyl)piperazine]	636 (27) %		5823 (95) %		347 (45) %		2700	39	3139 (51) %		2711 (31) %		636	359	5820	3.14	2710		EC50 (LXR β LBD protein [3]): 347 nM
CC(C)[C@@H]1CN(c2ccc(F)c(S(C)(=O)=O)c2Cl)CCN1c1ncc(Cl)c(C2CC2)n1 [Cpd No 22-2, (R)-5-chloro-2-(4-(2-chloro-4-fluoro-3-(methylsulfonyl)phenyl)-2-isopropylpiperazin-1-yl)-4-cyclopropylpyrimidine]							271	12	3610 (83) %	3.61	1227 (7) %	1230	750	172	2140				Cell LXRβ efficacy [1]: 750 (10) %; Cell LXRβ efficacy [2]: 2144 (96) %
CC(C)[C@@H]1CN(c2ccc(F)c(S(C)(=O)=O)c2)CCN1c1ccc(C(F)(F)F)cn1 [7-36, (R)-4-(4-fluoro-3-(methylsulfonyl)phenyl)-2-isopropyl-1-(5-(trifluoromethyl)pyridin-2-yl)piperazine]							415	102		> 10	333 (106) %	333	121	4	> 10000			30	Cell LXRβ efficacy [1]: 121 (93) %
CS(=O)(=O)c1cccc(N2CCN(C[C@H]3CC[C@H](C(F)(F)F)CC3)[C@@H](c3ccccc3)C2)c1 (single isomer, unassigned) [48-33]	32%	466	52%	583	82%	375	4870	74	5224 (46) %	5.22	1245 (49) %	1240							
Cc1nc(N2CCN(c3ccc(F)c(S(C)(=O)=O)c3)C[C@H]2C(C)C)ncc1Cl [7-12, (R)-5-chloro-2-(4-(4-fluoro-3-(methylsulfonyl)phenyl)-2-isopropylpiperazin-1-yl)-4-methylpyrimidine]	177 (58) %						677	86		> 10	997 (83) %	997	177	9	> 10000			105	
C[C@]1(c2ccccc2)CN(c2cccc(S(C)(=O)=O)c2)CCN1Cc1ccc(C(F)(F)F)cc1 (single isomer, unassigned) [46-21]	541 (12) %		537 (75) %				3000	24			2026 (20) %		541		537	> 10	2030		Ki (LXR β LBD protein [7]): 85 nM; EC50 (LXR β LBD protein [3]): > 50000 nM
C[C@]1(c2ccccc2)CN(c2cccc(S(C)(=O)=O)c2)CCN1Cc1ccc(C(F)(F)F)c(Cl)c1 (single isomer, unassigned) [46-34]	587 (10) %		688 (70) %				862	40	7451 (87) %		2082 (24) %		587	32	688	7.45	2080		EC50 (LXR β LBD protein [3]): 257 nM
CS(=O)(=O)c1cc(N2CCN(C[C@H]3CC[C@@H](C(F)(F)F)CC3)[C@@H](c3ccccc3)C2)ccc1C(N)=O (single isomer, unassigned) [17-39]	26%	630	135%	2660	61%	63	267	55	9842 (125) %	9.84	1648 (67) %	1650		107					
benzyl (R)-2-isobutyl-4-(3-(methylsulfonyl)phenyl)piperazine-1-carboxylate [1-13]	7%	265	132%	756	52%	36	586	37	4105 (131) %	4.11	2139 (16) %	2140							
CC(O)c1cnc(N2CCN(c3ccc(F)c(S(C)(=O)=O)c3)C[C@H]2C(C)C)nc1C(F)(F)F (mixture of isomers) [Cpd No 12-1, 1-(2-((R)-4-(4-fluoro-3-(methylsulfonyl)phenyl)-2-isopropylpiperazin-1-yl)-4-(trifluoromethyl)pyrimidin-5-yl)ethan-1-ol]	154 (37) %								8047 (105) %	8.05	969 (46) %	969	154	23	252			230	
CS(=O)(=O)c1cccc(N2CCN(C[C@@H]3C[C@@H]4[C@H](C3)C4(F)F)[C@@H](c3ccccc3)C2)c1 (single isomer, unassigned) [48-66]			81%	824					7360 (100) %	7.36	2518 (40) %	2520						804	Cell LXRβ efficacy ([1]; Biological Test Example 2, agonist mode): 20%; EC50 ([1]; Biological Test Example 2, agonist mode, read-out: Cell LXRβ EC50): 716 nM; Ki (LXR β LBD protein [7]; Biological Test Example 1, read-out: LXRβ Binding Ki): 103 nM
CC(C)[C@@H]1CN(c2ccc(F)c(S(C)(=O)=O)c2)CCN1c1ncc(C(=O)N(C)CCCO)c(C(F)(F)F)n1 [17-11, (R)-2-(4-(4-fluoro-3-(methylsulfonyl)phenyl)-2-isopropylpiperazin-1-yl)-N-(3-hydroxypropyl)-N-methyl-4-(trifluoromethyl)pyrimidine-5-carboxamide]			875 (90) %										> 20000	548	875	3.46	> 20000	4880	
CC(C)[C@H]1CC[C@H](CN2CCN(c3cccc(S(C)(=O)=O)c3)C[C@@H]2c2ccccc2)CC1 (single isomer, unassigned) [48-15]	21%	564	60%	455	32%	197	2310	40		> 10	1658 (31) %	1660							
CC(C)[C@@H]1CN(c2cccc(S(C)(=O)=O)c2)CCN1c1nccc(OC(F)F)n1 [44-2, (R)-4-(difluoromethoxy)-2-(2-isopropyl-4-(3-(methylsulfonyl)phenyl)piperazin-1-yl)pyrimidine]											2594 (24) %		205	35	177			520	Cell LXRβ efficacy [1]: 205 (10) %; Cell LXRβ efficacy [2]: 177 (103) %; IC50 [5]: 1.47 µM; Cell LXRα efficacy [5, 10]: 105%; EC50 [6]: 2590 nM
